Measured values reported in article PMC2819846 (Mutation research, 2008).

Assays:
[1] = tested on: Salmonella TA98; assay: Salmonella plate-incorporation mutagenicity assay, strain TA98, with S9 mix; assay type: cell-based; conditions: for Mutagenic potency, Revertants/µg ± S.E., TA98 / Mutagenicity call TA98: plate-incorporation, +S9
[2] = tested on: Salmonella TA100; assay: Salmonella plate-incorporation mutagenicity assay, strain TA100; assay type: cell-based; conditions: for Mutagenic potency, Revertants/µg ± S.E., TA100 / Mutagenicity call TA100: plate-incorporation, +S9
[3] = tested on: Salmonella TA104; assay: Salmonella plate-incorporation mutagenicity assay, strain TA104, with S9 mix; assay type: cell-based
[4] = tested on: strain TA100; assay type: cell-based, Salmonella; conditions: TA100 liquid-suspension, 5 µg/ml
[5] = tested on: DNA from Salmonella TA100; assay: Stable DNA adducts by 32P-postlabeling in DNA of treated TA100; assay type: cell-based; conditions: TA100, 5 µg/ml; DMSO 0.024 ± 0.000
[6] = tested on: DNA from Salmonella TA100; assay: Abasic sites by aldehydic-site assay in DNA of treated TA100; assay type: cell-based; conditions: TA100, 5 µg/ml; DMSO 5.9 ± 0.33
[7] = TA98 +S9, Test 1, 2 µg/plate, zero-dose 33/40/39
[8] = TA98 +S9, Test 1, 5 µg/plate, zero-dose 33/40/39
[9] = TA98 +S9, Test 1, 10 µg/plate, zero-dose 33/40/39
[10] = TA98 +S9, Test 1, 20 µg/plate, zero-dose 33/40/39
[11] = TA98 +S9, Test 1, 40 µg/plate, zero-dose 33/40/39
[12] = TA98 +S9, Test 1, 80 µg/plate, zero-dose 33/40/39
[13] = TA98 +S9, Test 2, 10 µg/plate, zero-dose 43/41/30
[14] = TA98 +S9, Test 3, 10 µg/plate, zero-dose 49/50/50
[15] = TA100 +S9, Test 1, 2 µg/plate, zero-dose 99/110/110
[16] = TA100 +S9, Test 1, 5 µg/plate, zero-dose 99/110/110
[17] = TA100 +S9, Test 1, 10 µg/plate, zero-dose 99/110/110
[18] = TA100 +S9, Test 1, 20 µg/plate, zero-dose 99/110/110
[19] = TA100 +S9, Test 1, 40 µg/plate, zero-dose 99/110/110
[20] = TA100 +S9, Test 1, 80 µg/plate, zero-dose 99/110/110
[21] = TA100 +S9, Test 2, 1 µg/plate, zero-dose 84/78/80
[22] = TA100 +S9, Test 2, 5 µg/plate, zero-dose 84/78/80
[23] = TA100 +S9, Test 3, 1 µg/plate, zero-dose 127/118/125
[24] = TA100 +S9, Test 3, 5 µg/plate, zero-dose 127/118/125
[25] = TA100 +S9, Test 4, 1 µg/plate, zero-dose 112/140/115
[26] = TA100 +S9, Test 4, 5 µg/plate, zero-dose 112/140/115
[27] = TA104 +S9, Test 3, 1 µg/plate, zero-dose 402/395/336
[28] = TA104 +S9, Test 3, 5 µg/plate, zero-dose 402/395/336

O[C@@H]1C=Cc2c(ccc3ccc4ccsc4c23)[C@H]1O (racemic) [P[4,3-b]T 8,9-diol, (±)-trans-8,9-Dihydrophenanthro[4,3-b]thiophene 8,9 diol-]
Rev/plate [1, 7]: 73 rev/plate
Rev/plate [1, 8]: 116 rev/plate
Rev/plate [1, 9]: 140 rev/plate
Rev/plate [1, 10]: 229 rev/plate
Rev/plate [1, 11]: 435 rev/plate
Rev/plate [1, 12]: 578 rev/plate
Rev/plate [1, 13]: 167/151
Rev/plate ([1]; TA98 +S9, Test 2, 20 µg/plate, zero-dose 43/41/30): 127/225
Rev/plate ([1]; TA98 +S9, Test 2, 40 µg/plate, zero-dose 43/41/30): 383/448
Rev/plate ([1]; TA98 +S9, Test 2, 80 µg/plate, zero-dose 43/41/30): 479/475
Rev/plate [1, 14]: 251/249
Rev/plate ([1]; TA98 +S9, Test 3, 20 µg/plate, zero-dose 49/50/50): 298/321
Rev/plate ([1]; TA98 +S9, Test 3, 40 µg/plate, zero-dose 49/50/50): 561/624
Rev/plate ([1]; TA98 +S9, Test 3, 80 µg/plate, zero-dose 49/50/50): 828/725
Mutagenic potency, Revertants/µg ± S.E., TA98 [1]: 11.0 ± 1.6 rev/µg
Mutagenicity call TA98 [1]: (+) (Called mutagenic (+) based on showing reproducible, dose-related increases in rev/plate that reached or exceeded 2-fold relative to zero-dose controls)
Rev/plate [2, 15]: 660 rev/plate
Rev/plate [2, 16]: 938 rev/plate
Rev/plate [2, 17]: 1120 rev/plate
Rev/plate [2, 18]: 1175 rev/plate
Rev/plate [2, 19]: 1027 rev/plate
Rev/plate [2, 20]: 673 rev/plate
Rev/plate ([2]; TA100 +S9, Test 2, 0.5 µg/plate, zero-dose 84/78/80): 205/219
Rev/plate [2, 21]: 318/270
Rev/plate ([2]; TA100 +S9, Test 2, 2.5 µg/plate, zero-dose 84/78/80): 703/655
Rev/plate [2, 22]: 857/907
Rev/plate ([2]; TA100 +S9, Test 3, 0.5 µg/plate, zero-dose 127/118/125): 412/353
Rev/plate [2, 23]: 610/511
Rev/plate ([2]; TA100 +S9, Test 3, 2.5 µg/plate, zero-dose 127/118/125): 951/868
Rev/plate [2, 24]: 985/1059
Rev/plate ([2]; TA100 +S9, Test 4, 0.5 µg/plate, zero-dose 112/140/115): 305/312
Rev/plate [2, 25]: 487/469
Rev/plate ([2]; TA100 +S9, Test 4, 2.5 µg/plate, zero-dose 112/140/115): 976/966
Rev/plate [2, 26]: 1368/1275
Rev/plate ([2]; TA100 +S9, Test 5, 0.5 µg/plate, zero-dose 102/119/99): 269/235
Rev/plate ([2]; TA100 +S9, Test 5, 1 µg/plate, zero-dose 102/119/99): 430/375
Rev/plate ([2]; TA100 +S9, Test 5, 2.5 µg/plate, zero-dose 102/119/99): 865/878
Rev/plate ([2]; TA100 +S9, Test 5, 5 µg/plate, zero-dose 102/119/99): 1150/1115
Times more mutagenic for base-substitution mutation than the parent P[4,3-b]T ([2]; base-substitution strains (TA100, TA104), Table 2): 10–20 times
Mutagenic potency, Revertants/µg ± S.E., TA100 [2]: 274 ± 37 rev/µg
Mutagenicity call TA100 [2]: (+) (Called mutagenic (+) based on showing reproducible, dose-related increases in rev/plate that reached or exceeded 2-fold relative to zero-dose controls)
Rev/plate ([3]; TA104 +S9, Test 1, 0.5 µg/plate, zero-dose 379/400/370): 700/693
Rev/plate ([3]; TA104 +S9, Test 1, 1 µg/plate, zero-dose 379/400/370): 1035/1060
Rev/plate ([3]; TA104 +S9, Test 1, 2.5 µg/plate, zero-dose 379/400/370): 1698/1615
Rev/plate ([3]; TA104 +S9, Test 1, 5 µg/plate, zero-dose 379/400/370): 1986/1995
Rev/plate ([3]; TA104 +S9, Test 3, 0.5 µg/plate, zero-dose 402/395/336): 824/707
Rev/plate [3, 27]: 1210/1178
Rev/plate ([3]; TA104 +S9, Test 3, 2.5 µg/plate, zero-dose 402/395/336): 1827/1822
Rev/plate [3, 28]: 1980/1970
Mutagenic potency, Revertants/µg ± S.E., TA104 ([3]; plate-incorporation, +S9): 577 ± 63 rev/µg
Mutagenicity call TA104 ([3]; plate-incorporation, +S9): (+) (Called mutagenic (+) based on showing reproducible, dose-related increases in rev/plate that reached or exceeded 2-fold relative to zero-dose controls)
Fold increase in mutant frequency relative to DMSO-treated cells [4]: 6.1 fold
Rev/10^6 survivors ([4]; DMSO 0.8): 4.9 Rev/10^6 survivors
Percent survival ([4]; DMSO 100): 47%
Stable adducts/10^8 nucleotides ± S.E [5]: 0.650 ± 0.045 adducts/10^8 nucleotides
Abasic sites/10^5 nucleotides ± S.E [6]: 5.5 ± 0.16 sites/10^5 nucleotides

c1ccc2c(c1)ccc1ccc3ccsc3c12 [P[4,3-b]T, Phenanthro[4,3-b]thiophene]
Rev/plate [1, 7]: 61 rev/plate
Rev/plate [1, 8]: 137 rev/plate
Rev/plate [1, 9]: 141 rev/plate
Rev/plate [1, 10]: 146 rev/plate
Rev/plate [1, 11]: 158 rev/plate
Rev/plate [1, 12]: 105 rev/plate
Rev/plate ([1]; TA98 +S9, Test 2, 1 µg/plate, zero-dose 43/41/30): 39/49
Rev/plate ([1]; TA98 +S9, Test 2, 2 µg/plate, zero-dose 43/41/30): 41/33
Rev/plate ([1]; TA98 +S9, Test 2, 5 µg/plate, zero-dose 43/41/30): 97/77
Rev/plate [1, 13]: 110/79
Rev/plate ([1]; TA98 +S9, Test 3, 1 µg/plate, zero-dose 49/50/50): 93/74
Rev/plate ([1]; TA98 +S9, Test 3, 2 µg/plate, zero-dose 49/50/50): 98/77
Rev/plate ([1]; TA98 +S9, Test 3, 5 µg/plate, zero-dose 49/50/50): 162/166
Rev/plate [1, 14]: 194/213
Mutagenic potency, Revertants/µg ± S.E., TA98 [1]: 13.7 ± 3.3 rev/µg
Mutagenicity call TA98 [1]: (+) (Called mutagenic (+) based on showing reproducible, dose-related increases in rev/plate that reached or exceeded 2-fold relative to zero-dose controls)
Rev/plate [2, 15]: 172 rev/plate
Rev/plate [2, 16]: 194 rev/plate
Rev/plate [2, 17]: 190 rev/plate
Rev/plate [2, 18]: 125 rev/plate
Rev/plate [2, 19]: 188 rev/plate
Rev/plate [2, 20]: 164 rev/plate
Rev/plate [2, 21]: 80/84
Rev/plate ([2]; TA100 +S9, Test 2, 2 µg/plate, zero-dose 84/78/80): 92/89
Rev/plate [2, 22]: 116/108
Rev/plate ([2]; TA100 +S9, Test 2, 10 µg/plate, zero-dose 84/78/80): 119/98
Rev/plate [2, 23]: 142/160
Rev/plate ([2]; TA100 +S9, Test 3, 2 µg/plate, zero-dose 127/118/125): 185/164
Rev/plate [2, 24]: 218/248
Rev/plate ([2]; TA100 +S9, Test 3, 10 µg/plate, zero-dose 127/118/125): 274/291
Rev/plate [2, 25]: 160/156
Rev/plate ([2]; TA100 +S9, Test 4, 2 µg/plate, zero-dose 112/140/115): 164/156
Rev/plate [2, 26]: 218/198
Rev/plate ([2]; TA100 +S9, Test 4, 10 µg/plate, zero-dose 112/140/115): 275/234
Mutagenic potency, Revertants/µg ± S.E., TA100 [2]: 12.8 ± 3.9 rev/µg
Mutagenicity call TA100 [2]: (+) (Called mutagenic (+) based on showing reproducible, dose-related increases in rev/plate that reached or exceeded 2-fold relative to zero-dose controls)
Rev/plate ([3]; TA104 +S9, Test 2, 1 µg/plate, zero-dose 276/260/270): 392/313
Rev/plate ([3]; TA104 +S9, Test 2, 2 µg/plate, zero-dose 276/260/270): 414/432
Rev/plate ([3]; TA104 +S9, Test 2, 5 µg/plate, zero-dose 276/260/270): 419/440
Rev/plate ([3]; TA104 +S9, Test 2, 10 µg/plate, zero-dose 276/260/270): 437/473
Rev/plate [3, 27]: 457/397
Rev/plate ([3]; TA104 +S9, Test 3, 2 µg/plate, zero-dose 402/395/336): 468/515
Rev/plate [3, 28]: 490/505
Rev/plate ([3]; TA104 +S9, Test 3, 10 µg/plate, zero-dose 402/395/336): 489/509
Rev/plate ([3]; TA104 +S9, Test 4, 1 µg/plate, zero-dose 482/455/462): 517/524
Rev/plate ([3]; TA104 +S9, Test 4, 2 µg/plate, zero-dose 482/455/462): 532/540
Rev/plate ([3]; TA104 +S9, Test 4, 5 µg/plate, zero-dose 482/455/462): 540/497
Rev/plate ([3]; TA104 +S9, Test 4, 10 µg/plate, zero-dose 482/455/462): 520/592
Mutagenic potency, Revertants/µg ± S.E., TA104 ([3]; plate-incorporation, +S9): 58.9 ± 7.9 rev/µg
